According to patent EP4635565A1, “PRENYLATED TETRAHYDROQUINOLINES AND QUINOLINES WITH PPAR AGONIST ACTIVITY” (Fundación para la Investigación del Hospital Clínico de la …, priority 2024, dated 2025):

Assays:
[1] = test system: ob/ob mice; assay: Gene expression (qPCR) in liver and epididymal white adipose tissue of ob/ob mice; type: in vivo; conditions: epididymal white adipose tissue and/or liver of ob/ob mice, 10 mg/kg/day, 15 days orally
Experimental: Animal studies were carried out in accordance with Directive 2010/63/EU for experimentation on animals. The handling of the animals and the experimental protocols were approved by the Animal Experimentation Ethics Committee of the University of Valencia (Protocol No. A1469445706311). Six-week-old male ob/ob mice (C57BL/6.Cg-Lepob/J) were supplied by Charles River Laboratories International (Wilmington, MA). Blood samples were collected from mice fasted for 6 hours to determine basal blood glucose levels. The animals, randomly divided into two groups (N ≈ 10-11 per group), were treated daily with vehicle (1% hydroxyethyl cellulose, Sigma-Aldrich) or with tetrahydroquinoline 5a at 10 mg/kg/day, for 15 days orally. After 15 days of treatment, and 6 h of fasting, the mice were anesthetized by inhalation of isoflurane and blood samples were collected in tubes with heparin or EDTA by intracardiac puncture. Plasma samples were obtained and stored at -80°C. Liver and epididymal white adipose tissue were removed and part of both organs were quickly frozen in liquid N2 for qPCR studies.
Gene expression analysis was carried out by real-time qPCR. To this end, total RNA was extracted from liver and epididymal white adipose tissue biopsies using TRIzol reagent (Invitrogen, Carlsbad, CA, USA). The isolated RNA was retro-transcribed using the Maxima First-Strand kit and amplified with a Luminaris Color qPCR MasterMIX (Fermentas, Whaltham, MA, USA) in a 7900 FastSystem thermal cycler. The mRNA levels were normalized to the expression of the constitutive gene cyclophilin.

[2] = test system: hPPARα, hPPARβ/δ, and hPPARγ; assay: PPAR transactivation assays, agonist profile over the three isoforms; conditions: always with partial activity on the PPARγ isoform
[3] = test system: Pdk4; assay: Pdk4 mRNA expression by RT-qPCR in L929sA WT cells; type: cell-based, mouse; conditions: 10 µM, 6 h
Experimental: (§1) RNA was isolated using the RNeasy Purification Kit (Qiagen) according to the manufacturer's instructions. cDNA was synthesised using a PrimeScript kit (Takara). RT-qPCR was performed using Light Cycler 480 SYBR Green I Master Mix (Roche).
Pyruvate Dehydrogenase Kinase 4 gene (Pdk4), a well-known target gene of PPARs, encodes a protein that regulates the phosphorylation and inactivation of the pyruvate dehydrogenase complex in response to physiological conditions. This response switches the energy source from glucose to fatty acids to maintain blood glucose levels to, thereby, increase lipid metabolism. Because it is a well-known target gene of PPARs, the effect of the 2- and 3-prenylated esters of tetrahydroquinolines and quinolines on a Pdk4 region reported to bind PPARα, was evaluated. The L929sA cells that were stably transfected with a PDK4-(PPRE)3-Luc+ reporter gene construct were used.

[4] = test system: NF-κB-IL8P-Luc+; assay: NF-κB-IL8P transactivation assay (TNFα-stimulated L929sA cells); type: cell-based, mouse; conditions: 10 µM, 1 h before TNF (2000 IU/ml), total induction time 6 h; compared to GW7647
Experimental: L929sA mouse fibroblasts were stably transfected using the calcium phosphate precipitation protocol, as described previously with p1481.IL8P-Luc+ plasmid construct. The indicated induction was performed at least in triplicates. All conditions were solvent-controlled. Subsequently, the cells were washed with PBS and lysed using TROPIX lysis buffer. Cellular luciferase levels were normalised to those of β-galactosidase (TROPIX, Bedford, MA, USA).
(§2) PPARs play crucial roles in controlling inflammatory responses. NF-κB is a transcription factor that plays a pivotal role in the expression of multiple genes involved in the immune and inflammatory responses. To study the potential anti-inflammatory effects of the tetrahydroquinolines and quinolines of the invention, the NF-κB-dependent physiological human IL-8 promoter construct, p1481.IL8P-Luc+, which is stably integrated into L929sA cells, was tested. After transfection, cells were treated at 10 µM with 5a, 5b, 8a, or 8b prior to TNFa stimulation. […] Given the significant decrease in NF-κB-IL8P-Luc+ reporter gene activity observed after treatment with the 2- or 3-prenylated tetrahydroquinolines 5a and 5b and the 3-prenylated quinoline 8b, their potential anti-inflammatory effects at the transcriptional level for other inflammatory mediators was evaluated. To achieve this, the L929sA WT cells were treated with 5a, 5b and 8b at 10 µM for 1 h, followed by TNFa stimulation for a total induction time of 6 h. The expression of inflammatory genes was evaluated by RT-qPCR.

[5] = test system: TNFα-induced proinflammatory genes; assay: TNFα-induced pro-inflammatory gene expression by RT-qPCR in L929sA WT cells; type: cell-based, mouse; conditions: 10 µM for 1 h, then TNFa, total induction time 6 h
Experimental: as §1, §2

[6] = target: T1, hPPARα (Homo sapiens, UniProt Q07869); assay: PPAR transactivation assay, human chimeric PPAR/Gal4 reporter luciferase system in Cos-7 cells (PPARα); type: cell-based
T1 sequence (Q07869 167-468): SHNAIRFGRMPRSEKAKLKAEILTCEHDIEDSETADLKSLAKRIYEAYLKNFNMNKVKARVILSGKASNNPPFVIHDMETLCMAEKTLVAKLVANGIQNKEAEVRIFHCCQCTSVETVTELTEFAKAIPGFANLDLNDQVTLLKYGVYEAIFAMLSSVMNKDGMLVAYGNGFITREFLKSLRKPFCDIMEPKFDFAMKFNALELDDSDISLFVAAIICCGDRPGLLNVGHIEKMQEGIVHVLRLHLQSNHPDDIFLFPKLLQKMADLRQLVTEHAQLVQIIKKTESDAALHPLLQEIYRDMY
Experimental: (§3) Transfections were stopped after 16 h by adding DMEM/10% FCS. Cells were detached with trypsin, re-seeded in 96-well plates for 6 h in DMEM/10% FCS, and incubated for 24 h in DMEM/0.2% FCS with increasing concentrations of the test compounds or vehicle (DMSO, 0.1% final concentration). At the end of the experiment, cells were washed once with ice-cold PBS, lysed, and luciferase and β-galactosidase activities were measured. Luciferase activity was normalised to that of the internal control, β-galactosidase. All transfection experiments were performed at least five times.
(§4) EC50 values against human PPARα/Gal4, PPARβ/δ/Gal4 and PPARγ/Gal4 receptors.

[7] = target: T2, hPPARβ/δ (Homo sapiens, UniProt Q03181); assay: PPAR transactivation assay, human chimeric PPAR/Gal4 reporter luciferase system in Cos-7 cells (PPARβ/δ); type: cell-based
T2 sequence (Q03181 171-441): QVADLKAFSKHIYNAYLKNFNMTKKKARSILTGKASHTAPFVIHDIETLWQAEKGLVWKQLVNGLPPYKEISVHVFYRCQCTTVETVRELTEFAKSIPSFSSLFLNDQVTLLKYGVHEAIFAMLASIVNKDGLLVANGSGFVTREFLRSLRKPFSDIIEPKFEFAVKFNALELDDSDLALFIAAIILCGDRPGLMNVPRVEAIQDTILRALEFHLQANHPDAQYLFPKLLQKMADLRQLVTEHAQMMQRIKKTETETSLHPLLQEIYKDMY
Experimental: as §3, §4

CCOC(=O)CC/C(C)=C/CCC1CCc2cc(OCc3ccccc3)ccc2N1C (centres unmarked) [Compound 5a, Ethyl (E)-7-(6-(benzyloxy)-1-methyl-1,2,3,4-tetrahydroquinolin-2-yl)-4-methylhept-4-enoate]
expression of Acox1 [1]: increased
expression of Cpt1a [1]: increased
expression of Pdk4 [1]: increased
PPAR agonist activity profile [2]: pan-PPAR agonist activity
expression of Pdk4 mRNA [3]: increased expression levels of Pdk4
transactivation of the TNFα-dependent NF-κB-driven reporter [4]: can repress the transactivation of the TNFα-dependent NF-κB-driven reporter
transcription of TNFα-induced proinflammatory genes [5]: downregulated the transcription of TNFα-induced proinflammatory genes such as Cc/5 and II-6
EC50 [6]: 3.6 µM
Emax at 10 µM ([6]; COS-7, read-out: Efficacy (%) at 10 µmol/L PPARα): 76%
Emax at 10 µM ([7]; COS-7, read-out: Efficacy (%) at 10 µmol/L PPARβ/δ): 60%
EC50 ([7]; human PPARβ/δ/Gal4, Cos-7 cells, concentration range 0.001-10 µmol/L, NA: not active): 2.6 µM
